Assay results: PubChem BioAssay AID463142 (The Scripps Research Institute Molecular Screening Center, 2010)

Target: Glutathione S-transferase omega-1 (Homo sapiens) (UniProt P78417)
Assay: IC50 of human GSTO1 blockade by gel ABPP – biochemical, SE-Rh probe, in-gel fluorescence, powder samples, set 2, late-stage follow-up (AID 463142)
Conditions: recombinant GSTO1, SE-Rh probe labeling

Chain of Glutathione S-transferase omega-1 (Homo sapiens) (P78417 whole entry, looked up): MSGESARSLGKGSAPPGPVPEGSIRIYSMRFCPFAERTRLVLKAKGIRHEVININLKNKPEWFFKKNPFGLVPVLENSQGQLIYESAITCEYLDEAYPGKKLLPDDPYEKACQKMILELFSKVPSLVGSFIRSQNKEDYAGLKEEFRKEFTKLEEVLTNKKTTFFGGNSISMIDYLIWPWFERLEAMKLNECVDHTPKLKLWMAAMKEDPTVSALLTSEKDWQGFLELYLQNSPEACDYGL

O=C(CCl)N(CCCNC(=O)C(F)(F)F)c1ccc(Cl)cc1
IC50: 40 nM
